# Earlier results as cited in patent US5990317A, “2-(1H-4(5)-imidazoyl) cyclopropyl compounds” (Gliatech, Inc., priority 1998, dated 1999).
# Like-named read-outs stand apart in the source and are kept apart here.
# How the values were obtained:
# [1] = test system: spontaneous locomotor activity, grooming and exploratory behavior; settings: intraventricular, saline and pentobarbital-treated rats; cited from earlier work
# arousal EEG pattern = settings: intraventricular, rabbits; cited from earlier work
# H3 receptor [2] = settings: rats; cited from earlier work
# H3 receptor [3] = settings: cat; cited from earlier work
# histamine = settings: in vivo; cited from earlier work
# [4] = test system: electrically-induced convulsions; settings: cited from earlier work
SMILES,"spontaneous locomotor activity, grooming, and exploratory behavior [1]",arousal EEG pattern (arousal EEG pattern),slow wave and REM sleep (H3 receptor [2]),wakefulness (H3 receptor [2]),wakefulness (H3 receptor [3]),synthesis and release of histamine (histamine),durations of every convulsive phase ([4]; electrically-induced convulsions),electroconvulsive threshold ([4]; in vivo)
NCCc1c[nH]cn1 [histamine],"increased spontaneous locomotor activity, grooming and exploratory behavior",induces the appearances of an arousal EEG pattern,–,–,–,–,–,–
S=C(NC1CCCCC1)N1CCC(c2cnc[nH]2)CC1 [thioperamide],–,–,decrease slow wave and REM sleep,increase wakefulness,enhanced wakefulness in a dose-dependent fashion,increase in synthesis and release of histamine,significantly and dose-dependently decrease the durations of every convulsive phase,increase the electroconvulsive threshold
